Data from patent US20250144094A1 (Erasca, Inc., priority 2021, published 2025).

Each molecule was assayed against Recombinant human ULK1 (1-649) (Homo sapiens (Human), UniProt O75385) (assay: ULK1 ADP Glo kinase activity assay, new method (ULKtide peptide substrate)). Settings: 25° C., 40 minutes, read-out: ULK1 biochemical IC50.
Summary of the method: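 Kinase activity was read as ADP production (ADP-Glo, luminescence 30 min after detection reagent) following a 40-min, 25 °C reaction of Sf9-expressed GST-ULK1 (1-649) with ULKtide substrate and ATP. Compounds ran as 12-point series starting at 10 μM; four-parameter curve fitting versus DMSO wells gave IC50.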

Chain of Recombinant human ULK1 (1-649) (O75385 1-649): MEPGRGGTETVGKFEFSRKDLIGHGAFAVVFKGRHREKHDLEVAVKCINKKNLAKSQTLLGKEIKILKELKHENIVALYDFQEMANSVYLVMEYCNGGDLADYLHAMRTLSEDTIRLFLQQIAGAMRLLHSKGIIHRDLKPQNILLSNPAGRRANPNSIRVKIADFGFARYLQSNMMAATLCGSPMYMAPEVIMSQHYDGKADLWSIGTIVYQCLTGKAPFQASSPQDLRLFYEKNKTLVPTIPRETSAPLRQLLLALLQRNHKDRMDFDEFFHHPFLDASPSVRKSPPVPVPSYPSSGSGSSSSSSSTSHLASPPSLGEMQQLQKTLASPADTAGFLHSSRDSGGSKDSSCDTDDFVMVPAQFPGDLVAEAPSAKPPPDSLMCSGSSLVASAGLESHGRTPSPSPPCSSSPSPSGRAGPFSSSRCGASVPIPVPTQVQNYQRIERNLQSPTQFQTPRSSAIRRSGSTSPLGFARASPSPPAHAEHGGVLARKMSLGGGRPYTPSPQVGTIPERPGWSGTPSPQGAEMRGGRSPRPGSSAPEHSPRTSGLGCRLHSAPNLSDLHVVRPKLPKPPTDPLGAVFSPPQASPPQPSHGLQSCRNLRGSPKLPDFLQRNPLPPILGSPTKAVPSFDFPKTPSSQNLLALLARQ

SMILES | IC50 [nM]
O=C1c2sc(-c3nc(Nc4cc5c(cc4C4CC4)CCNC5)ncc3C(F)(F)F)cc2S(=O)(=O)CCN1C1CC1 [Example 224, 4-cyclopropyl-7-(2-((6-cyclopropyl-1,2,3,4-tetrahydroisoquinolin-7-yl)amino)-5-(trifluoromethyl)pyrimidin-4-yl)-3,4-dihydrothieno[2,3-f][1,4]thiazepin-5(2H)-one 1,1-dioxide] | ≤ 5
O=C1c2sc(-c3nc(Nc4cc5c(cc4C4CC4)CCNC5)ncc3C(F)(F)F)cc2S(=O)(=O)CCN1C1CCC1 [Example 225, 4-cyclobutyl-7-(2-((6-cyclopropyl-1,2,3,4-tetrahydroisoquinolin-7-yl)amino)-5-(trifluoromethyl)pyrimidin-4-yl)-3,4-dihydrothieno[2,3-f][1,4]thiazepin-5(2H)-one 1,1-dioxide] | ≤ 5
O=C1c2sc(-c3nc(Nc4cc5c(cc4Cl)CN(CCF)CC5)ncc3C(F)(F)F)cc2S(=O)(=O)CCN1C1CC1 [Example 227, 7-(2-((7-chloro-2-(2-fluoroethyl)-1,2,3,4-tetrahydroisoquinolin-6-yl)amino)-5-(trifluoromethyl)pyrimidin-4-yl)-4-cyclopropyl-3,4-dihydrothieno[2,3-f][1,4]thiazepin-5(2H)-one 1,1-dioxide] | ≤ 5
CCc1cc2c(cc1Nc1ncc(C(F)(F)F)c(-c3cc4c(s3)C(=O)N(C3CC3)CCS4(=O)=O)n1)CCN(CC)C2 [Example 228, 4-cyclopropyl-7-(2-((2,7-diethyl-1,2,3,4-tetrahydroisoquinolin-6-yl)amino)-5-(trifluoromethyl)pyrimidin-4-yl)-3,4-dihydrothieno[2,3-f][1,4]thiazepin-5(2H)-one 1,1-dioxide] | ≤ 5
O=C1c2sc(-c3nc(Nc4cc5c(cc4Cl)CCNC5)ncc3C(F)(F)F)cc2S(=O)(=O)CCN1C1COC1 [Example 230, 7-(2-((6-chloro-1,2,3,4-tetrahydroisoquinolin-7-yl)amino)-5-(trifluoromethyl)pyrimidin-4-yl)-4-(oxetan-3-yl)-3,4-dihydrothieno[2,3-f][1,4]thiazepin-5(2H)-one 1,1-dioxide] | ≤ 5
CN1CCS(=O)(=O)c2cc(-c3nc(Nc4cc5c(cc4C4CC4)CCNC5)ncc3C(F)(F)F)sc2C1=O [Example 231, 7-(2-((6-cyclopropyl-1,2,3,4-tetrahydroisoquinolin-7-yl)amino)-5-(trifluoromethyl)pyrimidin-4-yl)-4-methyl-3,4-dihydrothieno[2,3-f][1,4]thiazepin-5(2H)-one 1,1-dioxide] | ≤ 5
O=C1c2sc(-c3nc(Nc4cc5c(cc4C4CC4)CCNC5)ncc3C(F)(F)F)cc2S(=O)(=O)CCN1CC(F)(F)F [Example 232, 7-(2-((6-cyclopropyl-1,2,3,4-tetrahydroisoquinolin-7-yl)amino)-5-(trifluoromethyl)pyrimidin-4-yl)-4-(2,2,2-trifluoroethyl)-3,4-dihydrothieno[2,3-f][1,4]thiazepin-5(2H)-one 1,1-dioxide] | ≤ 5
CCN1CCc2cc(Nc3ncc(C(F)(F)F)c(-c4cc5c(s4)C(=O)N(C4CC4)CCS5(=O)=O)n3)c(C3CC3)cc2C1 [Example 233, 4-cyclopropyl-7-(2-((7-cyclopropyl-2-ethyl-1,2,3,4-tetrahydroisoquinolin-6-yl)amino)-5-(trifluoromethyl)pyrimidin-4-yl)-3,4-dihydrothieno[2,3-f][1,4]thiazepin-5(2H)-one 1,1-dioxide] | ≤ 5
O=C1c2sc(-c3nc(Nc4cc5c(cc4C4CC4)CN(CC4COC4)CC5)ncc3C(F)(F)F)cc2S(=O)(=O)CCN1C1CC1 [Example 234, 4-cyclopropyl-7-(2-((7-cyclopropyl-2-(oxetan-3-ylmethyl)-1,2,3,4-tetrahydroisoquinolin-6-yl)amino)-5-(trifluoromethyl)pyrimidin-4-yl)-3,4-dihydrothieno[2,3-f][1,4]thiazepin-5(2H)-one 1,1-dioxide] | ≤ 5
